Data on one compound can be found in patent publication US20180085371A1, “COMBINATION OF PANOBINOSTAT AND RUXOLITINIB IN THE TREATMENT OF CANCER SUCH AS A MYELOPROLIFERATIVE NEOPLASM” (Novartis AG, priority 2011, published 2018).

The assay deals with p-STAT5. The assay can be described thus: PD marker p-STAT5 by IHC in spleen and bone marrow. It is filed as in vivo, mouse. The conditions noted are these: Compound A 60 mg/kg single agent or with Compound B 8 mg/kg. Here is the method: The p-STAT5 PD marker of Compound A and Acetylated Histone H3 PD marker of Compound B were assessed in spleen and bone marrow. Briefly, the spleen was removed in total, weighed and placed on a dissection tray. The spleen was cut transverse in two halves and two equal pieces were taken from the middle parts using a scalpel. Spleen pieces were not allowed to exceed 3-4 mm in thickness. Spleen pieces were transferred into labeled histocassettes and immersion-fixed in neutral buffered formalin (NBF) 10% (v/v) at room temperature (pH 6.8-7.2) (J.T. Baker, Medite, Switzerland). Fixative volume was at least tenfold in excess compared to tissue volume. […]
For histological evaluation, BM cellularity was evaluated as hypercellularity (3+), normocellularity (2+), and hypocellularity (1+). Splenic architecture was evaluated as destroyed (1+) or preserved (0). Presence of myeloid, erythroid and adipocytes cells was evaluated as 0, 1+, 2+, 3+ based on cellularity. […] Whole slide automated quantitative assessment of p-STAT5-positive and -negative cell nuclei were performed using Definiens eCognition software (eCognition version XD 1.5, Definiens AG, Germany). The results were expressed as percent of positive p-STAT5 nuclei out of total nuclei. Staining of acetylated histone H3 was scored as 1+, 2+, 3+ based on staining intensity and number of positive cells.

As to `N#CC[C@H](C1CCCC1)n1cc(-c2ncnc3[nH]ccc23)cn1` [Compound A, (R)-3-(4-(7H-pyrrolo[2,3-d]pyrimidin-4-yl)-1H-pyrazol-1-yl)-3-cyclopentylpropanenitrile], the “p-STAT5 PD marker (IHC)” value is on record as “clear reduction”.
